# Target: T1, Bax (Homo sapiens, UniProt Q07812)
# T1 construct: endogenous in cells; host or cells: mitochondria isolated from HeLa cells
# Assay: Effect of compounds on the release of cytochrome c triggered by Bid-induced Bax activation (in vitro assay d)
# Format: biochemical
# Conditions: compound at 10 μM; mitochondria isolated from HeLa cells; 10 nM recombinant Bid
# Method: d) Effect of Compounds according to formula I onto the Release of Cytochrome c Trig-gered by Bid-Induced Bax Activation (In Vitro Assay)
# Concerning the Bid-induced activation of Bax leading to mitochondrial Cytochrome C release, it is referred to the description of Martinou et al. in The Journal of Cell Biology, Vol. 144, No. 5, Mar. 8, 1999, pages 891–901. Mitochondria isolated from HeLa cells are incubated for 15 min at 30° C. in 100 μl of KCl buffer in the presence or absence of 10 nM recombinant Bid. The various compounds (10 μM) are pre-incubated for 5 min prior to addition of Bid. Following incubation, mitochondria were centrifuged for 5 min at 13000 g at 4° C. and the supernatant is collected for cytochrome c analysis. Cytochrome c is detected by Western blotting. The cytochrome c bands are scanned and quantified using a Bio-Rad (GS-700 Imaging Densitometer).
# The above set out 2 in vitro assays c) and d) involving the determination of mitochondrial cytochrome c release are based on immunochemical methods using the Western blot analysis. […]
# T1 sequence (Q07812 whole entry): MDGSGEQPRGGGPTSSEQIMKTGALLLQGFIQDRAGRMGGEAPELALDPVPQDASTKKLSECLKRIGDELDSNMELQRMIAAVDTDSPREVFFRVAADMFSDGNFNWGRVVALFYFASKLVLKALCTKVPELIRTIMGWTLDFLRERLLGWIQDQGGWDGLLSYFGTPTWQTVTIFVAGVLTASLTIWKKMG
row,Compound,inhibition at 10 µM [%]
1,"CCCCCNC(=O)N1CC(=NOC)C[C@H]1C(=O)NCCO [Example 23, (2S,4EZ)-N^2-(2-hydroxyethyl)-4-(methoxyimino)-N^1-pentyl-1,2-pyrrolidinedicarboxamide]",~79
2,"CCCCCNC(=O)N1CC(=NOC)C[C@H]1C(=O)N1CCN(Cc2ccc3c(c2)OCO3)CC1 [Example 28, (2S,4EZ)-2-{[4-(1,3-benzodioxol-5-ylmethyl)-1-piperazinyl]carbonyl}-4-(methoxyimino)-N-pentyl-1-pyrrolidinecarboxamide]",~59
